{"source": "paper PMC6281186", "about": "“Bioinformatics: A rational combine approach used for the identification and in-vitro activity evaluation of potent β-Glucuronidase inhibitors” (PLoS ONE, 2018)", "molecular_target": "T1, β-glucuronidase enzyme (Escherichia coli, UniProt P05804)", "T1 construct": "purchased Sigma Aldrich G7396-25KU", "T1 sequence (P05804 whole entry)": "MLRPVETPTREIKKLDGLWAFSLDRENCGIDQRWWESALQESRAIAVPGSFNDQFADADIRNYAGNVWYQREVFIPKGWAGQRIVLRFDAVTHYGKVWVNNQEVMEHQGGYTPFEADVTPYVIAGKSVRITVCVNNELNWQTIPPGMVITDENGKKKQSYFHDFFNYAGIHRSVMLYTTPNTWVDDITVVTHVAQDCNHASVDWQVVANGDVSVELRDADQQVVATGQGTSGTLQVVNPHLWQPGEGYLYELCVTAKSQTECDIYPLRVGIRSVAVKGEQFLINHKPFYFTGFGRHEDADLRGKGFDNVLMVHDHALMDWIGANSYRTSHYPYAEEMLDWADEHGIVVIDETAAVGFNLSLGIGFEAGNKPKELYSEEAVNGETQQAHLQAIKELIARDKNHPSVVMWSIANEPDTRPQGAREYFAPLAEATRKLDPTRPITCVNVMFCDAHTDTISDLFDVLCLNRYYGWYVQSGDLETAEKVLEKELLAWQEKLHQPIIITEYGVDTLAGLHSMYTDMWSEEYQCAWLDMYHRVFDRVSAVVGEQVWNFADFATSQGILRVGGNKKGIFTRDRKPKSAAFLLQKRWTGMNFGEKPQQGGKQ", "assay": "β-Glucuronidase inhibition assay (spectrophotometric, p-nitrophenyl-β-D-glucuronide)", "type": "biochemical", "description": "β-Glucuronidase inhibitory activity was determined with the help of spectrophotometric method by measuring the absorbance at 405 nm of p-nitrophenol formed from the substrate (p-nitrophenyl-β-D-glucuronide, N1627-250 mg, Sigma Aldrich). The total reaction volume was 250 μL. The compound dissolved in DMSO (100%), which becomes 2% in the ultimate assay (250 μL) and the similar conditions were used for standard (D-saccharic acid 1, 4-lactone, Sigma Aldrich). The reaction mixture contained 185 μL of 0.1 M acetate buffer, 5 μL of test compound solution, 10 μL of (1U) enzyme solution (G7396-25KU, Sigma Aldrich) was incubated at 37°C for 30 min. The plates were read on a multiplate reader (SpectraMax plus 384) at 405 nm after the addition of 50 μL of 0.4 mM p-nitrophenyl-β-D-glucuronide. All assays were performed in triplicate. IC50values were calculated by using EZ-Fit software (Perrella Scientific Inc., Amherst, MA, U.S.A.). These values are the mean of three independent readings^ [23]", "data": [{"smiles": "O=C1OC(C(O)C(=O)O)C(O)C1O", "note": "[D-saccharic acid 1,4-lactone]", "values": [{"measurement": "% Inhibition", "setting": "Conc. 200 μM", "value": 89.4, "unit": "%"}, {"measurement": "IC50", "setting": "β-glucuronidase inhibition, mean of three readings, read-out: IC50 μM±SEM", "value": "45.8 ± 2.16", "unit": "µM"}]}]}
